Experimental data reported in patent publication US10202650B2, “Methods for monitoring ELOVL2, KLF14 and PENK gene expression following treatment with vitamin C” (The Regents of the University of California, priority 2016, dated 2019).

Tests used:
Type in all cases: cell-based, human
ELOVL2 [1] = assay: Expression of age-related marker (ARM, e.g. ELOVL2) in WI38 fibroblasts, Example 1
Protocol: (§1) The proliferation effects of vitamin C on WI38 fibroblasts were tested. This cell line is useful as an aging model since it is a mortal human cell line that follows the Hayflick limit, in that it undergoes a certain number of cell divisions before stopping. The senescence level in WI38 increased as the cell line divided. […] A membrane-soluble derivative of vitamin C, 6-O-Palmitoyl-L-ascorbic acid (PalmAA), which has an additional fatty acid that allows it to pass through the cell membrane, was also tested. The oxidized derivative of vitamin C, dehydroascorbic acid (DHAA), as Vitamin C is actively converted to DHAA in cell culture media, was tested as well. Insulin was also added to this experiment to upregulate Glut-1 transporter, through which DHAA enters the cell.
A) Cell images of 12-well plate treated with low concentration vitamin C at Day 0, 4 and 5 for PD46. B) Confluency plot calculated through ImageJ of PD46, n=2. […] F) Confluency plot calculated through ImageJ of PD48, n=2. […]
FIG. 2 illustrates phenotypic and genotypic effects of vitamin C treatment were analyzed on younger WI38 PD42 and older WI38 PD58 fibroblasts. […] B) Confluency plot calculated through ImageJ of PD42, n=2. […] F) Confluency plot calculated through ImageJ of PD58, n=2. […]
A) Cell images of 12-well at Day 0 and Day 8 of treatment for PD55. B) Confluency plot calculated through ImageJ for PD55, n=2. […]

WI38 fibroblasts = assay: Proliferation (confluency) of WI38 fibroblasts, Example 1; conditions: for cell proliferation: concentration not stated
Protocol: as §1
A) Cell images of 12-well plate treated with low concentration vitamin C at Day 0, 4 and 5 for PD46. B) Confluency plot calculated through ImageJ of PD46, n=2. C) and D) Expression graphs for ARM (e.g., ELOVL2) and SLC2A1 for PD46, n=3. E) Cell images of 12-well treated with high concentration vitamin C at Day 0, 4 and 5 for PD48. F) Confluency plot calculated through ImageJ of PD48, n=2. G) and […]) Expression graphs for ARM and SLC2A1 for PD48, n=3.
FIG. 2 illustrates phenotypic and genotypic effects of vitamin C treatment were analyzed on younger WI38 PD42 and older WI38 PD58 fibroblasts. A) Cell images of 12-well at Day 0, 1 and 2 of treatment for PD42. B) Confluency plot calculated through ImageJ of PD42, n=2. C) and D) Expression graphs for ARM (e.g., ELOVL2) and SLC2A1 for PD42, n=3. E) Cell images of 12-well at Day 0, 5 and 7 of treatment for PD58. F) Confluency plot calculated through ImageJ of PD58, n=2. G) and H) Expression graphs for ARM (e.g., ELOVL2) and SLC2A1 for […], n=3. I) Cell images of senescence and DAPI staining of PD45.5 fibroblasts. J) Graph of percentage senescence for younger PD32 fibroblast and older PD45.5 fibroblast. n=3.
A) Cell images of 12-well at Day 0 and Day 8 of treatment for PD55. B) Confluency plot calculated through ImageJ for PD55, n=2. C) and D) Expression graph for ARM (e.g., ELOVL2) and SLC2A1 for PD55, n=3.
A) Diagram of postulated pathway for interconversion of DHAA to vitamin C and their effect on fibroblast cells. B) Cell images of 12-well at Day 10 of treatment for PD54. C) Confluency plot calculated through ImageJ of PD54, n=2. D and E) Expression graphs for ARM (e.g., ELOVL2) and SLC2A1 for PD54, n=3. F) Graph of percentage senescence for younger PD32 fibroblast and older PD45.5 fibroblast. n=3. G) Fluorescent ROS assay showing fluorescent ROS relative to total fibroblasts in PD48 fibroblasts.

WI38 cells at PD55 [2] = assay: WI38 PD55 confluency / cell proliferation, Example 6
Protocol: (§2) WI38 cells at PD55 (55th population doubling) were incubated with different concentrations of vitamin C (Vc), L-dehydro ascorbic acid (DHAA or DHA), or L-ascorbic acid 2-phosphate (VcP). DHAA (or DHA) is an oxidized form of vitamin C. L-ascorbic acid 2-phosphate (VcP) is a vitamin C derivative. Three concentrations were used for each tested compound and the concentrations included 0.3 mM (equivalent to […]), 1.2 mM, or 1.8 mM.

ELOVL2 [3] = assay: ELOVL2 expression in aging WI38 cells (PD55)
Protocol: as §2
The expression of ELOVL2 is also observed to be increased with a low concentration of vitamin C and all concentrations of L-ascorbic acid 2-phosphate (VcP) but not with DHAA (FIG. 27).

WI38 cells at PD55 [4] = assay: Cell senescence of WI38 PD55 by beta gal staining assay
Protocol: as §2

aged fibroblast = assay: Reversal of biological age / reprogramming of aged fibroblast into iPSCs; conditions: low concentration
Protocol: As used herein, the terms “biological age (bioage),” “chemical age,” “methylomic age,” and “molecular age” are equivalent or synonymous. The biological age is determined using a set of age-associated markers (e.g., epigenetic markers) of a subject or an organism. In the current disclosure, the biological age is determined from an analysis of the modification status of specific CpG dinucleotide and, in particular, e.g., the methylation status at the C-5 position of cytosine.

[5] = all three concentrations (0.3 mM, 1.2 mM, 1.8 mM)
[6] = all concentrations (0.3 mM, 1.2 mM, 1.8 mM)

SMILES: CCCCCCCCCCCCCCCC(=O)OC[C@H](O)[C@H]1OC(=O)C(O)=C1O [6-O-Palmitoyl L-ascorbic acid, 6-O-Palmitoyl-L-ascorbic acid]
- gene expression change in the age related marker (ELOVL2 [1]): caused no gene expression change in the age related marker
- cell proliferation (WI38 fibroblasts): induced minimal proliferation

SMILES: O=C1O[C@H]([C@@H](O)CO)C(O)=C1OP(=O)(O)O [L-ascorbic acid 2-phosphate]
- cell proliferation (WI38 cells at PD55 [2]; [5]): cell proliferation is observed
- expression of ELOVL2 (ELOVL2 [3]; [6]): increased
- protection against cell senescence (WI38 cells at PD55 [4]; [6]): protective against cell senescence

SMILES: O=C1O[C@H]([C@@H](O)CO)C(O)=C1O [vitamin C, L-ascorbic acid]
- cell proliferation rate (WI38 cells at PD55 [2]; higher concentration, 1.2 mM or 1.8 mM, relative to 0.3 mM): slower cell proliferation rate relative to the concentration at 0.3 mM
- cell proliferation (WI38 cells at PD55 [2]; low concentration, 0.3 mM): increase cell proliferation
- biological age (aged fibroblast): reversed
- reprogramming of aged fibroblast into iPSCs (aged fibroblast): reverted into iPSCs from aged fibroblast
- proliferative effect, older vs younger fibroblast cells (WI38 fibroblasts; 50 μg/mL): more pronounced on older fibroblast cells compared to younger fibroblast cells
- fibroblast cell growth / cell death (WI38 fibroblasts; higher concentrations, 200 μg/mL to 500 μg/mL): slowed or inhibited fibroblast cell growth while causing cell death
- fibroblast proliferation (WI38 fibroblasts; low concentrations, 50 μg/mL to 100 μg/mL): induced fibroblast proliferation
- expression of ELOVL2 (ELOVL2 [3]; low concentration): increased
- protection against cell senescence (WI38 cells at PD55 [4]; low concentration): protective against cell senescence

SMILES: O=C1O[C@H]([C@@H](O)CO)C(=O)C1=O [DHAA, dehydroascorbic acid]
- cell proliferation (WI38 cells at PD55 [2]; [5]): increased cell proliferation is not observed
- cell proliferation (WI38 fibroblasts): induced lower cell proliferation compared to an equal concentration of vitamin C
- expression of ELOVL2 (ELOVL2 [3]; [6]): not
- protection against cell senescence (WI38 cells at PD55 [4]; [6]): did not exert a protective effect against cell senescence
